Calls of active or inactive are those of the source. How the calls were made is not given here.
System: CCRIS mutagenicity, Ames/micronucleus/aberration tests
Test: CCRIS mutagenicity studies
[1] = Test System: AMES SALMONELLA TYPHIMURIUM, Strain/Indicator: TA98, Metabolic Activation: NONE, Method: PREINCUBATION
[2] = Test System: AMES SALMONELLA TYPHIMURIUM, Strain/Indicator: TA100, Metabolic Activation: NONE, Method: PREINCUBATION

c1ccc2[nH]c(-c3cscn3)nc2c1
mutagenic call (End Point: IN VITRO MICRONUCLEUS, Test System: HUMAN LYMPHOBLASTOID WTK1 CELLS, Metabolic Activation: NONE): active; positive; uva radiation was 250 uw/cm2 | mutagenic call (End Point: IN VITRO MICRONUCLEUS, Test System: V79 CELLS, Metabolic Activation: NONE): active; positive | mutagenic call (Test System: AMES SALMONELLA TYPHIMURIUM, Strain/Indicator: TA97, Metabolic Activation: NONE, BACTERIA IRRADIATED IN PRESENCE OF TEST COMPOUND WITH UVA FOR 10 MIN, TRANSFERRED TO MEDIUM, Metabolic Activation: NONE, BACTERIA IRRADIATED IN PRESENCE OF TEST COMPOUND WITH UVA FOR 10 MIN, TRANSFERRED TO MEDIUM, Method: STANDARD PLATE): active; positive; uva was 250 uw/cm2 | mutagenic call (Test System: AMES SALMONELLA TYPHIMURIUM, Strain/Indicator: TA98, Metabolic Activation: HAMSTER, LIVER, S-9, AROCLOR 1254 (5 OR 30%), Method: PREINCUBATION): inactive; negative | mutagenic call (Test System: AMES SALMONELLA TYPHIMURIUM, Strain/Indicator: TA98, Metabolic Activation: HAMSTER, LIVER, S-9, AROCLOR 1254 (10%), Method: PREINCUBATION): active; positive | mutagenic call (Test System: AMES SALMONELLA TYPHIMURIUM, Strain/Indicator: TA98, Metabolic Activation: NONE, BACTERIA IRRADIATED IN PRESENCE OF TEST COMPOUND WITH UVA FOR 10 MIN, TRANSFERRED TO MEDIUM, Metabolic Activation: NONE, BACTERIA IRRADIATED IN PRESENCE OF TEST COMPOUND WITH UVA FOR 10 MIN, TRANSFERRED TO MEDIUM, Method: STANDARD PLATE): active; positive; response was just barely positive; uva was 250 uw/cm2 | mutagenic call [1]: inactive; negative | mutagenic call (Test System: AMES SALMONELLA TYPHIMURIUM, Strain/Indicator: TA98, Metabolic Activation: RAT, LIVER, S-9, AROCLOR 1254 (30%), Method: PREINCUBATION): inactive; negative | mutagenic call (Test System: AMES SALMONELLA TYPHIMURIUM, Strain/Indicator: TA100, Metabolic Activation: HAMSTER, LIVER, S-9, AROCLOR 1254 (30%), Method: PREINCUBATION): inactive; negative | mutagenic call (Test System: AMES SALMONELLA TYPHIMURIUM, Strain/Indicator: TA100, Metabolic Activation: NONE, BACTERIA IRRADIATED IN PRESENCE OF TEST COMPOUND WITH UVA FOR 10 MIN, TRANSFERRED TO MEDIUM, Metabolic Activation: NONE, BACTERIA IRRADIATED IN PRESENCE OF TEST COMPOUND WITH UVA FOR 10 MIN, TRANSFERRED TO MEDIUM, Method: STANDARD PLATE): active; positive; uva was 250 uw/cm2 | mutagenic call [2]: inactive; negative | mutagenic call (Test System: AMES SALMONELLA TYPHIMURIUM, Strain/Indicator: TA100, Metabolic Activation: RAT, LIVER, S-9, AROCLOR 1254 (30%), Method: PREINCUBATION): inactive; negative | mutagenic call (Test System: AMES SALMONELLA TYPHIMURIUM, Strain/Indicator: TA104, Metabolic Activation: NONE, BACTERIA IRRADIATED IN PRESENCE OF TEST COMPOUND WITH UVA FOR 10 MIN, TRANSFERRED TO MEDIUM, Metabolic Activation: NONE, BACTERIA IRRADIATED IN PRESENCE OF TEST COMPOUND WITH UVA FOR 10 MIN, TRANSFERRED TO MEDIUM, Method: STANDARD PLATE): active; positive; uva was 250 uw/cm2 | mutagenic call (Test System: E. COLI, Strain/Indicator: WP2S/PKM101, Metabolic Activation: NONE, BACTERIA IRRADIATED IN PRESENCE OF TEST COMPOUND WITH UVA FOR 10 MIN, TRANSFERRED TO MEDIUM, Metabolic Activation: NONE, BACTERIA IRRADIATED IN PRESENCE OF TEST COMPOUND WITH UVA FOR 10 MIN, TRANSFERRED TO MEDIUM, Method: STANDARD PLATE): active; positive; uva was 250 uw/cm2

CCCSP(=O)(OCC)SCCC
mutagenic call (End Point: In vitro chromosomal aberrations, Test System: Chinese hamster ovary (CHO) cells, Metabolic Activation: None): inactive; negative | mutagenic call (End Point: UDS/DNA repair, Test System: Fischer 344 rat (male) hepatocytes, Metabolic Activation: None, Method: Autoradiography): inactive; negative | mutagenic call (End Point: UDS, Test System: Fischer 344 rat hepatocytes, Metabolic Activation: None, Method: Autoradiography): inactive; negative | mutagenic call (Test System: Ames Salmonella typhimurium, Strain/Indicator: TA98, Metabolic Activation: None, Method: Plate incorporation): inactive; negative | mutagenic call (Test System: Ames Salmonella typhimurium, Strain/Indicator: TA98, Metabolic Activation: Rat, Liver, S-9, Method: Plate incorporation): inactive; negative | mutagenic call (Test System: Ames Salmonella typhimurium, Strain/Indicator: TA100, Metabolic Activation: None, Method: Plate incorporation): inactive; negative | mutagenic call (Test System: Ames Salmonella typhimurium, Strain/Indicator: TA100, Metabolic Activation: Rat, Liver, S-9, Method: Plate incorporation): inactive; negative | mutagenic call (Test System: Ames Salmonella typhimurium, Strain/Indicator: TA1535, Metabolic Activation: None, Method: Plate incorporation): inactive; negative | mutagenic call (Test System: Ames Salmonella typhimurium, Strain/Indicator: TA1535, Metabolic Activation: Rat, Liver, S-9, Method: Plate incorporation): inactive; negative | mutagenic call (Test System: Ames Salmonella typhimurium, Strain/Indicator: TA1537, Metabolic Activation: None, Method: Plate incorporation): inactive; negative | mutagenic call (Test System: Ames Salmonella typhimurium, Strain/Indicator: TA1537, Metabolic Activation: Rat, Liver, S-9, Method: Plate incorporation): inactive; negative | mutagenic call (Test System: Ames Salmonella typhimurium, Strain/Indicator: TA1538, Metabolic Activation: None, Method: Plate incorporation): inactive; negative | mutagenic call (Test System: Ames Salmonella typhimurium, Strain/Indicator: TA1538, Metabolic Activation: Rat, Liver, S-9, Method: Plate incorporation): inactive; negative | mutagenic call (Test System: Chinese hamster ovary, Strain/Indicator: CHO-K1-BH4 (HGPRT), Metabolic Activation: None, Method: Suspension/plate): inactive; negative | mutagenic call (Test System: Chinese hamster ovary, Strain/Indicator: CHO-K1-BH4 (HGPRT), Metabolic Activation: Rat, Liver, S-9, Method: Suspension/plate): inactive; negative | mutagenic call (Test System: Mouse lymphoma cells, Strain/Indicator: L5178Y cells, Metabolic Activation: None, Method: Plate): inactive; negative | mutagenic call (Test System: Mouse lymphoma cells, Strain/Indicator: L5178Y cells, Metabolic Activation: S-9, Method: Plate): inactive; negative

CN(C(=O)CN(CCO)CC(=O)N(C)C(C)(C)Cc1ccccc1)C(C)(C)Cc1ccccc1
mutagenic call (Test System: AMES SALMONELLA TYPHIMURIUM, Strain/Indicator: TA97, Metabolic Activation: HAMSTER, LIVER, S-9, AROCLOR 1254 (10 OR 30%), Method: PREINCUBATION): inactive; negative | mutagenic call (Test System: AMES SALMONELLA TYPHIMURIUM, Strain/Indicator: TA97, Metabolic Activation: NONE, Method: PREINCUBATION): inactive; negative | mutagenic call (Test System: AMES SALMONELLA TYPHIMURIUM, Strain/Indicator: TA97, Metabolic Activation: RAT, LIVER, S-9, AROCLOR 1254 (10 OR 30%), Method: PREINCUBATION): inactive; negative | mutagenic call (Test System: AMES SALMONELLA TYPHIMURIUM, Strain/Indicator: TA98, Metabolic Activation: HAMSTER, LIVER, S-9, AROCLOR 1254 (10 OR 30%), Method: PREINCUBATION): inactive; negative | mutagenic call [1]: inactive; negative | mutagenic call (Test System: AMES SALMONELLA TYPHIMURIUM, Strain/Indicator: TA98, Metabolic Activation: RAT, LIVER, S-9, AROCLOR 1254 (10 OR 30%), Method: PREINCUBATION): inactive; negative | mutagenic call (Test System: AMES SALMONELLA TYPHIMURIUM, Strain/Indicator: TA100, Metabolic Activation: HAMSTER, LIVER, S-9, AROCLOR 1254 (10 OR 30%), Method: PREINCUBATION): inactive; negative | mutagenic call [2]: inactive; negative | mutagenic call (Test System: AMES SALMONELLA TYPHIMURIUM, Strain/Indicator: TA100, Metabolic Activation: RAT, LIVER, S-9, AROCLOR 1254 (10 OR 30%), Method: PREINCUBATION): inactive; negative | mutagenic call (Test System: AMES SALMONELLA TYPHIMURIUM, Strain/Indicator: TA1535, Metabolic Activation: HAMSTER, LIVER, S-9, AROCLOR 1254 (10 OR 30%), Method: PREINCUBATION): inactive; negative | mutagenic call (Test System: AMES SALMONELLA TYPHIMURIUM, Strain/Indicator: TA1535, Metabolic Activation: NONE, Method: PREINCUBATION): inactive; negative | mutagenic call (Test System: AMES SALMONELLA TYPHIMURIUM, Strain/Indicator: TA1535, Metabolic Activation: RAT, LIVER, S-9, AROCLOR 1254 (10 OR 30%), Method: PREINCUBATION): inactive; negative

CC(C)NO
mutagenic call (Test System: CHINESE HAMSTER V-79, Strain/Indicator: V-79/6-THIOGUANINE, Metabolic Activation: NONE, Method: SUSPENSION): active; positive | mutagenic call (Test System: UDS RODENT HEPATOCYTES, Strain/Indicator: THY INCORP (NON-S-PHASE), Metabolic Activation: NONE, Method: LIQUID SCINTILLATION COUNTING): inactive; negative
